System: Human Coronary Artery Endothelial Cells (HCAEC)
Experiment: CyQuant cell number / proliferation, HCAEC (Example 7)
Type: cell-based
Conditions: 1 mg/ml, after 96 hours post agent treatment, not following 24 hours exposure only
Protocol: Cells were exposed to the test compounds for 24 to 48 hours and then allowed to grow for 96 hours in regular media (without test compound). The final concentrations for cell treatment were as follows: compounds 13358-18-1, 13358-18-2, 13358-18-4, and 13358-18-6 were evaluated at 10 mg/ml, 1 mg/ml, 100 micrograms/ml, and 10 micrograms/ml. Compounds 13358-18-3 and 13358-18-5 were evaluated at 50 mg/ml, 10 mg/ml, 1 mg/ml, and 100 micrograms/ml.
Three assays were used to look at the proliferation, viability and cytotoxicity of the compounds on the cells. A non-radioactive cytotoxicity assay available under the trade designation CytoTox 96 from Promega Corporation (Madison, Wis.) is designed to determine the cytotoxicity of a substance by quantitatively measuring the presence of lactate dehydrogenase (LDH) in cell culture supernatant. LDH is released in cells that are undergoing cell death and the assay converts it to a red formazan product that can allows for the proportional amount of LDH absorbance to be read. A cell proliferation assay available under the trade designation CyQuant from Invitrogen Corporation (Carlsbad, Calif.) determines the density of cells in culture by eluding a green fluorescent dye which fluoresces when bound to cellular nucleic acids. The amount of nucleic acid present is proportional to the amount of living cells in culture, therefore an accurate cell count can be obtained. A luminescent cell viability assay available under the trade designation CellTiter-Glo from Promega Corporation (Madison, Wis.) uses the amount ATP present in the cell cytoplasm as an indicator for metabolic activity. The amount of ATP present is proportional to the measured amount of a luminescent signal. This assay was used to confirm if the cells are still viable after exposure to the test compounds.

Question: For `CC(=O)CCC(O)C(O)c1ccccc1` (stereo not drawn) [Compound 13358-18-1, 5,6-dihydroxy-6-phenyl-hexan-2-one], which “cell number and viability” value is on record?
Answer: Its value is “some antiproliferative effect with viable cells”.

Question: With `O=C1CCCCC1CC(O)CO` (stereo not drawn) [Compound 13358-18-4, 2-(2′,3′-dihydroxypropyl)-cyclohexanone] as the molecule, how does the “cell number and viability” value read?
Answer: The value was “some antiproliferative effect with viable cells”.

Question: With `CC(=O)OCC(O)CO` (stereo not drawn) [Compound 13358-18-5, 2,3-dihydroxy-propyl acetate] as the molecule, how does the “cell number and viability” value read?
Answer: The value was “some antiproliferative effect with viable cells”.

— patent US20090061515A1, “Methods of inhibiting or suppressing cellular proliferation” (priority 2007, published 2009)
